This series is described as follows: Pharmacokinetics in rats (half-life). Format: in vivo, rat (male Sprague Dawley). The following applies: rat, blood, read-out: T 1/2 in Rats (converted). The source says: Per Os Pharmacokinetics in Rats--Procedure:
The animals are housed, fed and cared for according to the Guidelines of the Canadian Council on Animal Care. Male Sprague Dawley rats (325-375 g) are fasted overnight prior to each PO blood level study. The rats are placed in the restrainer one at a time and the box firmly secured. The zero blood sample is obtained by nicking a small (1 mm or less) piece off the tip of the tail. The tail is then stroked with a firm but gentle motion from the top to the bottom to milk out the blood. Approximately 1 mL of blood is collected into a heparirnized vacutainer tube.
Compounds are prepared as required, in a standard dosing volume of 10 mL/kg, and administered orally by passing a 16 gauge, 3" gavaging needle into the stomach. Subsequent bleeds are taken in the same manner as the zero bleed except that there is no need to nick the tail again. The tail is cleaned with a piece of gauze and milked/stroked as described above into the appropriately labelled tubes.
Immediately after sampling, blood is centrifuged, separated, put into clearly marked vials and stored in a freezer until analysed. Typical time points for determination of rat blood levels after PO dosing are 0, 15 min, 30 min, 1 h, 2 h, 4 h, and 6 h.
After the 4 hr time point bleed, food is provided to the rats ad libitum. Water is provided at all times during the study.
The following vehicles may be used in PO rat blood level determinations:
Compounds for PO blood levels can be in suspension form. For better dissolution, the solution can be placed in a sonicator for approximately 5 minutes.
For analysis, aliquots are diluted with an equal volume of acetonitrile and centrifuged to remove protein precipitate. The supernatant is injected directly onto a C-18 HPLC column with UV detection. Quantitation is done relative to a clean blood sample spiked with a known quantity of drug.
Intravenous Pharmacokinetics in Rats--Procedure
The animals are housed, fed and cared for according to the Guidelines of the Canadian Council on Animal Care. Male Sprague Dawley (325-375 g) rats are placed in plastic shoe box cages with a suspended floor, cage top, water bottle and food. The compound is prepared as required, in a standard dosing volume of 1 mL/kg.
Rats are bled for the zero blood sample and dosed under CO2 sedation. The rats, one at a time, are placed in a primed CO2 chamber and taken out as soon as they have lost their righting reflex. The rat is then placed on a restraining board, a nose cone with CO2 delivery is placed over the muzzle and the rat restrained to the board with elastics. With the use of forceps and scissors, the jugular vein is exposed and the zero sample taken, followed by a measured dose of compound which is injected into the jugular vein. Light digital pressure is applied to the injection site, and the nose cone is removed. The time is noted. This constitutes the zero time point.
The 5 min bleed is taken by nicking a piece (1-2 mm) off the tip of the tail. The tail is then stroked with a firm but gentle motion from the top of the tail to the bottom to milk the blood out of the tail. Approximately 1 mL of blood is collected into a heparinized collection vial. Subsequent bleeds are taken in the same fashion, except that there is no need to nick the tail again. The tail is cleaned with a piece of gauze and bled, as described above, into the appropriate labelled tubes. Typical time points for determination of rat blood levels after I.V. dosing are either a) 0, 5 min, 15 min, 30 min, 1 h, 2 h, 6 h, or b) 0, 5 min, 30 min, 1 h, 2 h, 4 h, 6 h.
The following vehicles may be used in IV rat blood level determinations:
DMSO (dimethylsulfoxide): Restricted to a dose volume of 0.1 mL per animal
PEG 200: Not more than 60% mixed with 40% sterile water --1 mL/kg
With Dextrose, either sodium bicarbonate or sodium carbonate can be added if the solution is cloudy. […]
Consider `CCCC1(C)OC(=O)C(c2ccc(F)cc2)=C1c1ccc(S(C)(=O)=O)cc1` (centres unmarked) [n, 3-(4-fluorophenyl)-5-methyl-4-[4-(methylsulfonyl)phenyl]-5-propyl-2,5-dihydro-2-furanone], for which the half-life was about 1 h. With `CC[C@]1(C)OC(=O)C(c2ccc(F)c(F)c2)=C1c1ccc(S(C)(=O)=O)cc1` [i, (5S)-3-(3,4-difluorophenyl)-5-ethyl-5-methyl-4-[4-(methylsulfonyl)phenyl] -2,5-dihydro-2-furanone] the figure was 4.8 h; with `CC[C@@]1(C)OC(=O)C(c2ccc(F)c(F)c2)=C1c1ccc(S(C)(=O)=O)cc1` [h, (5R)-3-(3,4-difluorophenyl)-5-ethyl-5-methyl-4-[4-(methylsulfonyl)phenyl] -2,5-dihydro-2-furanone], 3.6 h; with `CCC1(C)OC(=O)C(c2ccc(F)cc2)=C1c1ccc(S(C)(=O)=O)cc1` (centres unmarked) [c, 5-ethyl-3-(4-fluorophenyl)-5-methyl-4-[4-(methylsulfonyl)phenyl]-2,5-dihydro-2-furanone], 3 h. `CC1(C)OC(=O)C(c2ccc(F)cc2)=C1c1ccc(S(C)(=O)=O)cc1` [Compound T3-1, 3-(4-fluorophenyl)-5,5-dimethyl-4-[4-(methylsulfonyl)phenyl]-2,5-dihydro-2-furanone, reference compound]: the half-life was over 24 h.

Source of the values: patent US6133292A, “Diaryl-5-alkyl-5-methyl-2-(5H)-furanones as selective cyclooxygenase-2-inhibitors” (Merck Frosst Canada & Co., priority 1998, dated 2000).
